From patent publication US20050032873A1, “3-Amino chroman and 2-amino tetralin derivatives” (Wyeth, priority 2003, published 2005)
Counter-ions that a name gives are not always drawn.

| melting point | Compound |
| --- | --- |
| 148 to 154 °C (dec.) | CCCN(CCCc1c[nH]c2ccc(Cl)cc12)C1COc2c(F)ccc(C(N)=O)c2C1 (centres unmarked) (as salt: hydrochloride) [Compound 116, 3-[[3-(5-chloro-1H-indol-3-yl)propyl](propyl)amino]-8-fluorochromane-5-carboxamide] |
| 150 to 158 °C (dec.) | NC(=O)c1ccc(F)c2c1CC(N(CCCc1c[nH]c3ccc(Cl)cc13)CC1CC1)CO2 (centres unmarked) (as salt: hydrochloride) [Compound 118, 3-[[3-(5-chloro-1H-indol-3-yl)propyl](cyclopropylmethyl)amino]-8-fluorochromane-5-carboxamide] |
| 124 °C (dec.) | NC(=O)c1ccc(F)c2c1OCC(NCCCc1c[nH]c3ccc(F)cc13)C2 (centres unmarked) (as salt: hydrochloride) [Compound 119, 5-fluoro-3-{[3-(5-fluoro-1H-indol-3-yl)propyl]amino}chromane-8-carboxamide] |
| 123 °C (dec.) | CCCN(CCCc1c[nH]c2ccc(F)cc12)C1COc2c(C(N)=O)ccc(F)c2C1 (centres unmarked) (as salt: hydrochloride) [Compound 120, 5-fluoro-3-[[3-(5-fluoro-1H-indol-3-yl)propyl](propyl)amino]chromane-8-carboxamide] |
| 123 °C (dec.) | NC(=O)c1ccc(F)c2c1OCC(N(CCCc1c[nH]c3ccc(F)cc13)CC1CC1)C2 (centres unmarked) (as salt: hydrochloride) [Compound 121, 3-{(cyclopropylmethyl)[3-(5-fluoro-1H-indol-3-yl)propyl]amino}-5-fluorochromane-8-carboxamide] |
| 132 °C (dec.) | NC(=O)c1ccc(F)c2c1OCC(N(CCCc1c[nH]c3ccc(F)cc13)C1CCC1)C2 (centres unmarked) (as salt: hydrochloride) [Compound 122, 3-{cyclobutyl[3-(5-fluoro-1H-indol-3-yl)propyl]amino}-5-fluorochromane-8-carboxamide] |
| 119 °C (dec.) | NC(=O)c1ccc(F)c2c1OCC(NCCCCc1c[nH]c3ccc(F)cc13)C2 (centres unmarked) (as salt: hydrochloride) [Compound 123, 5-fluoro-3-{[4-(5-fluoro-1H-indol-3-yl)butyl]amino}chromane-8-carboxamide] |
| 116 °C (dec.) | CCCN(CCCCc1c[nH]c2ccc(F)cc12)C1COc2c(C(N)=O)ccc(F)c2C1 (centres unmarked) (as salt: hydrochloride) [Compound 124, 5-fluoro-3-[[4-(5-fluoro-1H-indol-3-yl)butyl](propyl)amino]chromane-8-carboxamide] |
| 116 °C (dec.) | NC(=O)c1ccc(F)c2c1OCC(N(CCCCc1c[nH]c3ccc(F)cc13)CC1CC1)C2 (centres unmarked) (as salt: hydrochloride) [Compound 125, 3-{(cyclopropylmethyl)[4-(5-fluoro-1H-indol-3-yl)butyl]amino}-5-fluorochromane-8-carboxamide] |
| 130 °C (dec.) | NC(=O)c1ccc(F)c2c1OCC(N(CCCCc1c[nH]c3ccc(F)cc13)C1CCC1)C2 (centres unmarked) (as salt: hydrochloride) [Compound 126, 3-{cyclobutyl[4-(5-fluoro-1H-indol-3-yl)butyl]amino}-5-fluorochromane-8-carboxamide] |
| 112 °C (dec.) | CCN(CCCCc1c[nH]c2ccc(F)cc12)C1COc2c(C(N)=O)ccc(F)c2C1 (centres unmarked) (as salt: hydrochloride) [Compound 127, 3-{ethyl[4-(5-fluoro-1H-indol-3-yl)butyl]amino}-5-fluorochromane-8-carboxamide] |
| 149 °C (dec.) | NC(=O)c1ccc(F)c2c1OCC(NCCCc1c[nH]c3c(F)cc(F)cc13)C2 (centres unmarked) (as salt: hydrochloride) [Compound 128, 3-{[3-(5,7-difluoro-1H-indol-3-yl)propyl]amino}-5-fluorochromane-8-carboxamide] |
| 130 °C (dec.) | CCCN(CCCc1c[nH]c2c(F)cc(F)cc12)C1COc2c(C(N)=O)ccc(F)c2C1 (centres unmarked) (as salt: hydrochloride) [Compound 129, 3-[[3-(5,7-difluoro-1H-indol-3-yl)propyl](propyl)amino]-5-fluorochromane-8-carboxamide] |
| 124 °C (dec.) | NC(=O)c1ccc(F)c2c1OCC(N(CCCc1c[nH]c3c(F)cc(F)cc13)CC1CC1)C2 (centres unmarked) (as salt: hydrochloride) [Compound 130, 3-{(cyclopropylmethyl)[3-(5,7-difluoro-1H-indol-3-yl)propyl]amino}-5-fluorochromane-8-carboxamide] |
| 136 °C (dec.) | NC(=O)c1ccc(F)c2c1OCC(N(CCCc1c[nH]c3c(F)cc(F)cc13)C1CCC1)C2 (centres unmarked) (as salt: hydrochloride) [Compound 131, 3-{cyclobutyl[3-(5,7-difluoro-1H-indol-3-yl)propyl]amino}-5-fluorochromane-8-carboxamide] |
| 125 °C (dec.) | CCN(CCCc1c[nH]c2c(F)cc(F)cc12)C1COc2c(C(N)=O)ccc(F)c2C1 (centres unmarked) (as salt: hydrochloride) [Compound 132, 3-[[3-(5,7-difluoro-1H-indol-3-yl)propyl](ethyl)amino]-5-fluorochromane-8-carboxamide] |

| melting point | Compound |
| --- | --- |
| 125 °C (dec.) | CNC(=O)c1ccc(F)c2c1C[C@H](N(CCCCc1c[nH]c3ccc(F)cc13)C1CCC1)CO2 (as salt: hydrochloride) [Compound 145a, (3S)-3-{cyclobutyl[4-(5-fluoro-1H-indol-3-yl)butyl]amino}-8-fluoro-N-methylchromane-5-carboxamide] |
| 125 °C (dec.) | CNC(=O)c1ccc(F)c2c1C[C@@H](N(CCCCc1c[nH]c3ccc(F)cc13)C1CCC1)CO2 (as salt: hydrochloride) [Compound 145b, (3R)-3-{cyclobutyl[4-(5-fluoro-1H-indol-3-yl)butyl]amino}-8-fluoro-N-methylchromane-5-carboxamide] |
| 147 to 151 °C | NC(=O)c1ccc(F)c2c1C[C@@H](N(CCCc1c[nH]c3c(F)cc(F)cc13)CC1CC1)CO2 (as salt: hydrochloride) [Compound 147, (3R)-3-{(cyclopropylmethyl)[3-(5,7-difluoro-1H-indol-3-yl)propyl]amino}-8-fluorochromane-5-carboxamide] |
| 168 to 174 °C (dec.) | C[C@H](CCN(C1CCC1)[C@H]1COc2c(F)ccc(C(N)=O)c2C1)c1c[nH]c2ccc(F)cc12 (as salt: hydrochloride) [Compound 152a, (3R)-3-{cyclobutyl[(3R)-3-(5-fluoro-1H-indol-3-yl)butyl]amino}-8-fluorochromane-5-carboxamide] |
| 160 to 168 °C (dec.) | C[C@@H](CCN(C1CCC1)[C@H]1COc2c(F)ccc(C(N)=O)c2C1)c1c[nH]c2ccc(F)cc12 (as salt: hydrochloride) [Compound 153a, (3R)-3-{cyclobutyl[(3S)-3-(5-fluoro-1H-indol-3-yl)butyl]amino}-8-fluorochromane-5-carboxamide] |
| 162 to 168 °C | C[C@@H](CCN(C1CCC1)[C@@H]1COc2c(F)ccc(C(N)=O)c2C1)c1c[nH]c2ccc(F)cc12 (as salt: hydrochloride) [Compound 153b, (3S)-3-{cyclobutyl[(3S)-3-(5-fluoro-1H-indol-3-yl)butyl]amino}-8-fluorochromane-5-carboxamide] |
| 124 to 132 °C | CCN(CCc1coc2c(OC)cccc12)C1COc2c(F)ccc(C(N)=O)c2C1 (centres unmarked) (as salt: hydrochloride) [Compound 157, 3-{ethyl[2-(7-methoxy-1-benzofuran-3-yl)ethyl]amino}-8-fluorochromane-5-carboxamide] |
| 125 to 132 °C | CCCN(CCc1coc2c(OC)cccc12)C1COc2c(F)ccc(C(N)=O)c2C1 (centres unmarked) (as salt: hydrochloride) [Compound 158, 8-fluoro-3-[[2-(7-methoxy-1-benzofuran-3-yl)ethyl](propyl)amino]chromane-5-carboxamide] |
| 135 to 145 °C (dec.) | COc1cccc2c(CCN(C3CCC3)C3COc4c(F)ccc(C(N)=O)c4C3)coc12 (centres unmarked) (as salt: hydrochloride) [Compound 159, 3-{cyclobutyl[2-(7-methoxy-1-benzofuran-3-yl)ethyl]amino}-8-fluorochromane-5-carboxamide] |
| 130 to 138 °C (dec.) | COc1cccc2c(CCN(CC3CC3)C3COc4c(F)ccc(C(N)=O)c4C3)coc12 (centres unmarked) (as salt: hydrochloride) [Compound 160, 3-{(cyclopropylmethyl)[2-(7-methoxy-1-benzofuran-3-yl)ethyl]amino}-8-fluorochromane-5-carboxamide] |
| 125 to 128 °C | CCN(CCCc1coc2c(OC)cccc12)C1COc2c(F)ccc(C(N)=O)c2C1 (centres unmarked) (as salt: hydrochloride) [Compound 162, 3-{ethyl[3-(7-methoxy-1-benzofuran-3-yl)propyl]amino}-8-fluorochromane-5-carboxamide] |
| 123 to 129 °C | CCCN(CCCc1coc2c(OC)cccc12)C1COc2c(F)ccc(C(N)=O)c2C1 (centres unmarked) (as salt: hydrochloride) [Compound 163, 8-fluoro-3-[[3-(7-methoxy-1-benzofuran-3-yl)propyl](propyl)amino]chromane-5-carboxamide] |
| 131 to 140 °C (dec.) | COc1cccc2c(CCCN(C3CCC3)C3COc4c(F)ccc(C(N)=O)c4C3)coc12 (centres unmarked) (as salt: hydrochloride) [Compound 164, 3-{cyclobutyl[3-(7-methoxy-1-benzofuran-3-yl)propyl]amino}-8-fluorochromane-5-carboxamide] |
| 125 to 132 °C | COc1cccc2c(CCCN(CC3CC3)C3COc4c(F)ccc(C(N)=O)c4C3)coc12 (centres unmarked) (as salt: hydrochloride) [Compound 165, 3-{(cyclopropylmethyl)[3-(7-methoxy-1-benzofuran-3-yl)propyl]amino}-8-fluorochromane-5-carboxamide] |
| 110 to 117 °C (dec.) | CCCCN(CCCc1coc2c(OC)cccc12)C1COc2c(F)ccc(C(N)=O)c2C1 (centres unmarked) (as salt: hydrochloride) [Compound 166, 3-{butyl[3-(7-methoxy-1-benzofuran-3-yl)propyl]amino}-8-fluorochromane-5-carboxamide] |

| Compound | melting point |
| --- | --- |
| NC(=O)c1ccc(F)c2c1CC(N(CCCc1c[nH]c3ccc(Cl)cc13)C1CCC1)CO2 (centres unmarked) (as salt: hydrochloride) [Compound 117, 3-[[3-(5-chloro-1H-indol-3-yl)propyl](cyclobutyl)amino]-8-fluorochromane-5-carboxamide] | 152 to 160 °C (dec.) |
